# Reference: patent US20220325242A1, “IDH2 INHIBITION FOR PRODUCING T-CELLS AND B-CELLS WITH A MEMORY PHENOTYPE” (Universite de Lausanne, priority 2019, published 2022)
# Tests used:
# human CD8+ T-cells = experiment: Cytokine expression after PMA and Ionomycin restimulation of human CBMC-derived T-cells; format: cell-based; details: day 11 cells, inhibitors washed out, PMA and ionomycin 4 hours
# Experimental: Methods: Mononuclear Cells were isolated from fresh umbilical cord blood on a Percoll Gradient (CBMCs). 10^4 CBMC's were seeded per well in a round bottom 96-well plate in RPMI with 10% human serum, and activated with (magnetic) αCD3/CD28 at a 1:2 cell:bead ratio and 300 U/ml rhIL-2, in the presence of 5 μM AG221 or DMSO, or 1 μM MK2206 (AKT inhibitor). After 11 days of culture, CD62L expression was analyzed by flow cytometry on a fraction of the cells (FIG. 15A). The other cells were washed 2 times and placed in a magnet to remove the inhibitors and the αCD3/CD28 beads. The cells were then rested for 4 hours before restimulating them for 4 hours with 1 ng/ml Phorbol 12-Myristate 13-Acetate (PMA, a PKC activator) and 50 μg/ml Ionomycin (a Ca^2+ ionophore, activating NF-KB and NFAT) in the presence of 50 μ/ml golgi inhibitor (Brefeldin A, BFA), allowing for the measurement of intracellular accumulation of different cytokines by flow cytometry.
# [1] = system: human CD4 T cells (CD3-positive/CD8-negative); experiment: CD62L expression in whole culture and in CD4 T cells, human culture (FIG. 16); format: cell-based
# Excerpt: FIG. 16: Phenotypic analysis of human bulk PBMC at day 11 post in vitro activation. (A,B) Quantification of flow cytometry analysis at day 11 post-activation showing the percentage of CD62L+ CD8 T cells in the CD3/CD8 double positive T cell population (A) or in all living cells (B) from a culture of PBMCs treated with AKTi (MK2206), IDH2i (AG221) or DMSO control. (C,D) Quantification of flow cytometry analysis at day 11 post-activation showing the percentage of CD62L+ CD4 T cells in the CD3-positive/CD8-negative T cell population (C) or in all living cells (D). (E,F) Quantification of flow cytometry analysis at day 11 post-activation showing the percentage of CD8 T cells (E, identified as CD3/CD8 double positive) and CD4 T cells (F, identified as CD3-positive/CD8-negative) in all living cells of a culture of PBMCs treated with AKTi (MK2206), IDH2i (AG221) or DMSO control. *p<0.05, compared to DMSO Graphs show mean±SEM.
# The previously obtained data has undergone additional analyses, in order to obtain more insight in CD62L expression in the whole culture as well as in CD4 T cells. In the human figure A and B, we now clearly made the distinction between CD62L expression as percentage out of CD8 T cells (FIG. 16A) or out of all living cells in the culture (FIG. 16 B).
# As mentioned before, about 98% of the cells in culture on day 11 are CD3-positive. Since CD3 is exclusively expressed on CD4 and CD8 T cells, we can deduct that all CD3-positive, CD8-negative must be CD4 T cells. When analyzing the CD3-pos/CD8-neg population we observed that CD62L expression is induced upon AG221 treatment, both when expressed as percentage out of CD4 T cells (FIG. 16 C) and as percentage out of total living cells (FIG. 16 D). […] This can be explained by our observation that AKT inhibition favors CD8 T cell differentiation over CD4 T cell differentiation. This ratio remains unchanged upon AG221-treatment, as compared to DMSO control (FIG. 16 E and F).
# [2] = system: accessible chromatin regions in OT1 T-cells; experiment: ATAC-seq of OT1 T-cells; format: cell-based, mouse; details: day 7, 5 μM day 0-3, compared to DMSO-treated T-cells
# Experimental: Methods: OT1 splenocytes were activated and cultured with 5 μM AG221 or DMSO as described in Example 2. After 3 days, the cells were washed and the IDH2 inhibitor was washed out as well. The cells were then cultured for an additional 4 days in the absence of AG221. At day 7, the cells were collected and washed once with PBS. 50′000 cells were collected for ATAC-seq while the remaining cell pellet was lysed in extraction buffer (20 mM Tris HCl, 150 mM NaCl, 1% Triton X-100, 10% glycerol, 5 mM EDTA) supplemented with Complete Mini protease inhibitor (Roche) for wester blotting.
# For ATAC-seq cells were transposed with the Illumina Tagment DNA Enzyme and Buffer Small Kit according to the protocol described by Buenrostro et al. (Curr Protoc Mol Biol. 2015 Jan 5;109:21.29.1-21.29.9.). Fragments were sequenced on an Illumina NextSeq 500 instrument.
smiles,measurement,setting,value
"CC(C)(O)CNc1nc(Nc2ccnc(C(F)(F)F)c2)nc(-c2cccc(C(F)(F)F)n2)n1 [AG221, 2-methyl-1-[[4-[6-(trifluoromethyl)pyridin-2-yl]-6-[[2-(trifluoromethyl)pyridin-4-yl]amino]-1,3,5-triazin-2-yl]amino]propan-2-ol]",TNF expression upon restimulation,human CD8+ T-cells,unaffected
same,expression of effector cytokine IFNγ upon restimulation,human CD8+ T-cells,significant upregulation
same,production of IL-2 upon restimulation,human CD8+ T-cells,unaltered
same,CD8 T cell versus CD4 T cell differentiation (ratio in all living cells),"[1]; day 11, compared to DMSO control",unchanged
same,"CD62L expression in CD3-pos/CD8-neg population, as percentage out of CD4 T cells","[1]; day 11, versus DMSO",induced
same,CD62L+ CD4 T cells as percentage out of total living cells,"[1]; day 11, versus DMSO",induced
same,more accessible regions in the DNA (ATAC-seq),[2],1633
